Measurements published in patent US11078515B2, “Methods for identifying targets for antimicrobial and antiproliferative compounds and compositions therefrom” (MIMETICS, LLC, priority 2015, dated 2021).
“Also recorded” adds a separate entry of the source.

How the values were obtained:
Cryptococcus neoformans [1] = experiment: Plating assays (colony forming units) after exposure under slow growth conditions; assay type: cell-based
From the text: (§1) Here, we determined whether a trehalose-mimetic compound (Validamycin A) produced by a Streptomyces bacterium, could target the trehalose pathway in S. cerevisiae and in C. neoformans, and inhibit their cell division in sub-optimal growth conditions.

Candida albicans = conditions: rich medium; reference [14]; cited from earlier work
Cryptococcus neoformans [2] = experiment: Cell division / growth by cell counting in rich versus slow growth (PUD) medium; assay type: cell-based; conditions: 0, 50, 100 mM
Method: Left panel: C. neoformans cells were grown in rich medium (YEP+2% (w/v) Dextrose) with 0 mM (black), 50 mM (gray), and 100 mM (dotted) concentrations of Validamycin A. Cells were counted each hour for 6 hours and relative growth per mL was assessed. Right panel: C. neoformans cells were grown for 24 hours in PUD media and then dosed with Validamycin A. Cells were grown in slow growth medium (PUD) with 0 mM (black), 50 mM (gray), and 100 mM (dotted) concentrations of Validamycin A for 7 days and then counted at time intervals shown. Media was changed every 24 hours to fresh media containing the indicated concentration of drug.
as §1

## OCC1=C[C@@H](N[C@H]2C[C@H](CO)[C@@H](O[C@H]3O[C@@H](CO)[C@H](O)[C@@H](O)[C@@H]3O)[C@H](O)[C@H]2O)[C@H](O)[C@@H](O)[C@@H]1O [Validamycin A]
Cryptococcus neoformans [1]; cells exposed under slow growth conditions (PUD medium)
  colony forming units: substantially reduced
Cryptococcus neoformans [1]; slow growth conditions (PUD medium)
  fungicidal activity (plating assays): fungicidal
Candida albicans
  efficacy as an antifungal agent against C. albicans: not effective
Cryptococcus neoformans [2]; optimal growth conditions, rich medium (YEPD+2% (w/v) Dextrose), counted each hour for 6 hours
  effect on division rates / growth: no effect; also recorded: not rich medium
Cryptococcus neoformans [2]; slow growth conditions, PUD medium (PBS, 5 g/L Urea, 0.1% (w/v) dextrose; mimics cerebral spinal fluid), 7 days
  effect on division rates / growth: severely inhibited; also recorded: inhibited in slow growth medium
